Assay results: article PMC9774391 (ACS Omega, 2022)

How the values were obtained:
MAO-A = biological target: T1, MAO-A (Homo sapiens, UniProt P21397); test: In vitro MAO-A inhibition assay (fluorometric); assay type: biochemical; details: for inhibition at 1000 µM: 10^–3 M; for inhibition at 100 µM: 10^–4 M
T1 sequence (P21397 1-527): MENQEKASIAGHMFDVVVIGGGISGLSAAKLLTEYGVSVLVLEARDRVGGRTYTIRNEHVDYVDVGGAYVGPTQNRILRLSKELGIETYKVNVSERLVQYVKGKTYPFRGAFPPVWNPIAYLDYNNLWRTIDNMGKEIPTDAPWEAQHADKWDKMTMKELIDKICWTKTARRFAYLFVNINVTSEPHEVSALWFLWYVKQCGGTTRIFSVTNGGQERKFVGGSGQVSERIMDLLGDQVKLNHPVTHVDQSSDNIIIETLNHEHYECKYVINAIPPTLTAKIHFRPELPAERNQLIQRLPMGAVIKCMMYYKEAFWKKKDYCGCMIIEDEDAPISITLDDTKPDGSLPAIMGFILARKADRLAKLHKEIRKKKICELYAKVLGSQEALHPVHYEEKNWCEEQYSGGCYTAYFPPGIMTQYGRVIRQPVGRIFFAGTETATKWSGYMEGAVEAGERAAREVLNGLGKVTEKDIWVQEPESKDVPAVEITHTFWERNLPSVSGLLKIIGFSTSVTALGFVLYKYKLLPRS

Beta Amyloid 1–42 (Aβ42) = biological target: T2, Beta Amyloid 1–42 (Aβ42) (Homo sapiens, UniProt P05067); test: Beta Amyloid 1–42 (Aβ42) inhibitor screening assay; assay type: biochemical; details: read-out: % β-amyloid plaque inhibition; for inhibition at 100 µM: 10^–4 M
T2 construct: The Beta Amyloid 1–42 (Aβ42) Ligand Screening Assay kit; purchased BioVision, Milpitas, CA
Excerpt: The Beta Amyloid 1–42 (Aβ42) Ligand Screening Assay kit (BioVision, Milpitas, CA) technique based on the fluorometric approach served as the basis for the experimental process.[21],[28],[29]

MAO-B = biological target: T3, MAO-B (Homo sapiens, UniProt P27338); test: In vitro MAO-B inhibition assay (fluorometric); assay type: biochemical; details: for inhibition at 1000 µM: 10^–3 M; for inhibition at 100 µM: 10^–4 M; for inhibition at 10 µM: 10^–5 M; for inhibition at 1 µM: 10^–6 M; for inhibition at 0.1 µM: 10^–7 M; for inhibition at 0.01 µM: 10^–8 M; for inhibition at 0.001 µM: 10^–9 M
T3 sequence (P27338 1-520): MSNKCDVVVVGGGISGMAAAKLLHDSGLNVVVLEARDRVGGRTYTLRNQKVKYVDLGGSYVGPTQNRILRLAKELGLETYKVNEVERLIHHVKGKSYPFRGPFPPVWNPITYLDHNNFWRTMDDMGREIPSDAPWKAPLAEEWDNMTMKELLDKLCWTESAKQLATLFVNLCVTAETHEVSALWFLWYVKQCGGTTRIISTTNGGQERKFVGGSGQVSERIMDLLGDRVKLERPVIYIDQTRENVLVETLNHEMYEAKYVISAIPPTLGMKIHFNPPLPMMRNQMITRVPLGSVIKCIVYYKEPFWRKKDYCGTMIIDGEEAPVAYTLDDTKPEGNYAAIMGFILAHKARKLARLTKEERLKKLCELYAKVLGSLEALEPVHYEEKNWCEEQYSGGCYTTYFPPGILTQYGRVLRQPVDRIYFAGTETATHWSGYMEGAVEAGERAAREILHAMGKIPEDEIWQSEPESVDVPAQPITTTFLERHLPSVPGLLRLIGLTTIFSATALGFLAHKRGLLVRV

AChE = AChE (Homo sapiens, UniProt P22303); test: biochemical; details: for inhibition at 1000 µM: 10^–3 M; for inhibition at 100 µM: 10^–4 M; for inhibition at 10 µM: 10^–5 M; for inhibition at 1 µM: 10^–6 M; for inhibition at 0.1 µM: 10^–7 M; for inhibition at 0.01 µM: 10^–8 M; for inhibition at 0.001 µM: 10^–9 M
Method: (§1) According to the modified Ellman approach outlined in our team’s earlier work, the AChE and BChE inhibitory activities of the obtained compounds were evaluated.[18]−[21]

BChE = BChE (Homo sapiens, UniProt P06276); test: biochemical; details: for inhibition at 1000 µM: 10^–3 M; for inhibition at 100 µM: 10^–4 M
Method: as §1

Cytotoxicity test (MTT) = assay type: cell-based; details: NIH/3T3 mouse embryonic fibroblast cells (ATCC CRL-1658), NIH/3T3 mouse fibroblast healthy cell line
Method: The NIH/3T3 cells were incubated according to the manufacturer’s recommendations. In 96-well plates, NIH/3T3 cells were seeded at a density of 1 × 10^4 cells per well. The MTT test was conducted in line with the previously mentioned standards.[19],[22],[23],[28],[30]

Sequence of BChE (P06276 29-602): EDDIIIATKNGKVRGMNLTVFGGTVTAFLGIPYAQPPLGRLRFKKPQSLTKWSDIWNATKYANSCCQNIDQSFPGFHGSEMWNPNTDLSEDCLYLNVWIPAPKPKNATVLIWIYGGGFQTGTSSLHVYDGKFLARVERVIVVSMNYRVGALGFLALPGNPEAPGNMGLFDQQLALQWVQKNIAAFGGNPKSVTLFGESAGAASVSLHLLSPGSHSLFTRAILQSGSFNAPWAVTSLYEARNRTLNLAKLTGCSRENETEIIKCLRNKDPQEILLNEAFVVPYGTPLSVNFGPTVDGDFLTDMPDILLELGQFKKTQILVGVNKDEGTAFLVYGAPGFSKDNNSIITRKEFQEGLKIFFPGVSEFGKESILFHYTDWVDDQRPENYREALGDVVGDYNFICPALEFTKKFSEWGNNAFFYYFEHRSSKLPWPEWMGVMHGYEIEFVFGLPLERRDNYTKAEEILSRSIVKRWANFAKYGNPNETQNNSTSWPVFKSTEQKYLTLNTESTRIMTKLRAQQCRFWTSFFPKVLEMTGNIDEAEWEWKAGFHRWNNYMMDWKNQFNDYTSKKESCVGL
T2 sequence (P05067 672-713 limits assumed): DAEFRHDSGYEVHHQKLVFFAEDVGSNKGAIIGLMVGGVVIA
Sequence of AChE (P22303 32-614): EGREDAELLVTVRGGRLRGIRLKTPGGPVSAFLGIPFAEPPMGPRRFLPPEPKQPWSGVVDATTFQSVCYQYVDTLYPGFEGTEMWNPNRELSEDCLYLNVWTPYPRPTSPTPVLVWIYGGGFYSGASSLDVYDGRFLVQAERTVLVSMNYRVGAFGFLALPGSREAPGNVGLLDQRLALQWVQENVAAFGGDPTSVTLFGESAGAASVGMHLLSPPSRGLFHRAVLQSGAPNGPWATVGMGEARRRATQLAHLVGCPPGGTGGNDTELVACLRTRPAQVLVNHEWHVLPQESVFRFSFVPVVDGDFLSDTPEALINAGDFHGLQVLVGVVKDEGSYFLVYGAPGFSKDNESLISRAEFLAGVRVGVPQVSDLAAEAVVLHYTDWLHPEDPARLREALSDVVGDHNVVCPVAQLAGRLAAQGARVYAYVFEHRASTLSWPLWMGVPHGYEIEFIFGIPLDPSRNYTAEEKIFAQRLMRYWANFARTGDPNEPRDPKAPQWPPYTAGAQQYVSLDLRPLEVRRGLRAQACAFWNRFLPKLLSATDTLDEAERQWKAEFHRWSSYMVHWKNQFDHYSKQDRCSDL

Compound	inhibition at 1000 µM (MAO-A) [%]	inhibition at 100 µM (MAO-A) [%]	inhibition at 1000 µM (MAO-B) [%]	inhibition at 100 µM (MAO-B) [%]	IC50 (AChE) [nM]	inhibition at 1000 µM (AChE) [%]	inhibition at 100 µM (AChE) [%]	inhibition at 10 µM (AChE) [%]	inhibition at 1 µM (AChE) [%]	inhibition at 0.1 µM (AChE) [%]	inhibition at 0.01 µM (AChE) [%]	inhibition at 0.001 µM (AChE) [%]	inhibition at 1000 µM (BChE) [%]	inhibition at 100 µM (BChE) [%]	IC50 (Cytotoxicity test (MTT)) [µM]	IC50 (MAO-B) [nM]	inhibition at 10 µM (MAO-B) [%]	inhibition at 1 µM (MAO-B) [%]	inhibition at 0.1 µM (MAO-B) [%]	inhibition at 0.01 µM (MAO-B) [%]	also measured
COc1ccc2c(c1)C(=O)/C(=C/c1ccc(NC(=O)CN3CCN(CCCO)CC3)cc1)C2 [D20]	81.86 ± 0.243	43.29 ± 0.429	83.6 ± 1.04	41.6 ± 0.508	31.1 ± 1.1	98.3 ± 1.11	91.1 ± 1.36	86.3 ± 1.25	77.2 ± 0.975	68.26 ± 0.633	40.2 ± 0.528	21.1 ± 0.429	82.6 ± 1.05	20.1 ± 0.277	20 ± 1	–	–	–	–	–	inhibition at 100 µM (Beta Amyloid 1–42 (Aβ42)): > 50%
COc1cc2c(cc1OC)C(=O)/C(=C/c1ccc(NC(=O)CN3CCN(CCCO)CC3)cc1)C2 [D21]	91.2 ± 1.21	26.9 ± 0.541	93.5 ± 1.38	46.2 ± 0.587	29.2 ± 0.8	95.7 ± 1.2	91.7 ± 1.47	87.3 ± 1.3	81.8 ± 1.1	70.6 ± 1	38.3 ± 0.678	19.3 ± 0.593	99.7 ± 2.82	40.6 ± 0.978	39.5 ± 1.82	–	–	–	–	–	inhibition at 100 µM (Beta Amyloid 1–42 (Aβ42)): > 50%
COc1ccc2c(c1)C/C(=C\c1ccc(NC(=O)CN3CCN(CCCN(C)C)CC3)cc1)C2=O [D25]	80.38 ± 0.646	43.1 ± 0.646	79 ± 1.31	40.1 ± 0.63	183 ± 7.4	92.6 ± 1.62	88.7 ± 1.19	71.1 ± 1.01	58.9 ± 0.952	43.2 ± 0.548	35.3 ± 0.417	23.4 ± 0.389	95.7 ± 2.13	32 ± 0.667	13.8 ± 0.369	–	–	–	–	–	–
COc1ccc2c(c1)C(=O)/C(=C/c1ccc(NC(=O)CN3CCN(CCCN(C)C)CC3)cc1)C2 [D26]	95.12 ± 0.828	44.3 ± 0.914	94.3 ± 0.997	41.3 ± 0.874	176 ± 6.2	93.3 ± 1.5	80.5 ± 1.21	78.1 ± 1.02	60.6 ± 0.974	40.3 ± 0.598	35.6 ± 0.758	24.5 ± 0.622	56.2 ± 0.826	31.1 ± 0.415	21.8 ± 0.556	–	–	–	–	–	–
C#CCN(C)CC(=O)Nc1ccc(/C=C2\Cc3cc(OC)ccc3C2=O)cc1 [D31]	92.7 ± 1.31	23.9 ± 0.572	93.6 ± 1.48	88.7 ± 1.36	–	41.3 ± 0.966	27.1 ± 0.803	–	–	–	–	–	98.8 ± 2.69	41.6 ± 0.988	26 ± 1.28	61.9 ± 2.8	81.5 ± 1.24	75.9 ± 1.06	61.9 ± 1.01	35.5 ± 0.485	inhibition at 0.001 µM (MAO-B): 18.8 ± 0.511%
C#CCN(C)CC(=O)Nc1ccc(/C=C2\Cc3ccc(OC)cc3C2=O)cc1 [D32]	76.7 ± 1.67	29.7 ± 0.752	94.8 ± 1.42	89.6 ± 1.27	–	33.8 ± 0.885	26.4 ± 0.565	–	–	–	–	–	90.9 ± 1.29	24.7 ± 0.455	282 ± 7.04	66.5 ± 2.4	81.5 ± 1.8	72.7 ± 1.32	59.6 ± 0.977	34.2 ± 0.514	inhibition at 0.001 µM (MAO-B): 21.5 ± 0.429%
C#CCN(C)CC(=O)Nc1ccc(/C=C2\Cc3cc(OC)c(OC)cc3C2=O)cc1 [D33]	84.3 ± 1.29	29.9 ± 0.552	82.1 ± 1.19	39.3 ± 0.665	–	52.4 ± 1.24	32 ± 0.462	–	–	–	–	–	99 ± 1.75	46.6 ± 0.845	–	–	–	–	–	–	–
CCN(CC)CCN(CC)CC(=O)Nc1ccc(/C=C2\Cc3cc(OC)ccc3C2=O)cc1 [D40]	84.3 ± 1.27	41.3 ± 0.577	–	88.8 ± 1.3	–	81.3 ± 1.11	41.6 ± 0.995	–	–	–	–	–	95.1 ± 1.24	44.3 ± 0.642	6.87 ± 0.297	203 ± 9.8	80.6 ± 1.48	65.2 ± 0.975	43.1 ± 0.662	25.7 ± 0.425	inhibition at 0.001 µM (MAO-B): 19.9 ± 0.365%
CCN(CC)CCN(CC)CC(=O)Nc1ccc(/C=C2\Cc3ccc(OC)cc3C2=O)cc1 [D41]	82.8 ± 2.12	22.5 ± 0.622	90.2 ± 1.36	81.8 ± 1.29	–	81 ± 1.6	36.6 ± 0.399	–	–	–	–	–	99.15 ± 0.704	46.3 ± 1.37	5.89 ± 0.119	209 ± 9.5	73.3 ± 1.42	65.4 ± 0.975	42.2 ± 0.563	32.7 ± 0.427	inhibition at 0.001 µM (MAO-B): 21.5 ± 0.385%
CCN(CC)CCN(CC)CC(=O)Nc1ccc(/C=C2\Cc3cc(OC)c(OC)cc3C2=O)cc1 [D42]	97.71 ± 0.411	40.2 ± 0.736	95.2 ± 1.62	40.2 ± 0.824	–	99.8 ± 2.01	44.2 ± 0.71	–	–	–	–	–	99.4 ± 1.29	45.91 ± 0.206	–	–	–	–	–	–	–
COc1cc(/C=C/C(=O)CC(=O)/C=C/c2ccc(O)c(OC)c2)ccc1O [curcumin, reference compound]	–	–	–	–	–	–	–	–	–	–	–	–	–	–	–	–	–	–	–	–	inhibition at 1000 µM (Beta Amyloid 1–42 (Aβ42); 10^–3 M): 95.9 ± 1.97%; inhibition at 100 µM (Beta Amyloid 1–42 (Aβ42)): 88.2 ± 2.17%
